Assay results from the supplement of paper PMC8671470.

Key:
Test in all cases: cell viability (% survival relative to DMSO control, bortezomib = 0%); higher = less cytotoxic
Conditions in all cases: 72 h
HEL = test system: HEL
Outline: (§1)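 In 384-well plates pre-printed with compounds at 1, 10, 100, 1000 or 10000 nM, duplicate wells received cells from 10 AML and 5 CML lines at densities within the linear growth range. The plates stayed at 37 °C with 5% CO2 for 72 h before CellTiter-Glo luminescence was recorded. Each entry is averaged percent survival. Scaling placed vehicle at 100% and a 10 µM positive control at 0%.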

KG-1 = test system: KG-1
Outline: as §1

ML-2 = test system: ML-2
Outline: as §1

MV4-11 = test system: MV4-11
Outline: as §1

Row | SMILES | cell viability (HEL; 1 nM) [%] | cell viability (HEL; 10 nM) [%] | cell viability (HEL; 100 nM) [%] | cell viability (HEL; 1000 nM) [%] | cell viability (HEL; 10000 nM) [%] | cell viability (KG-1; 1 nM) [%] | cell viability (KG-1; 10 nM) [%] | cell viability (KG-1; 100 nM) [%] | cell viability (KG-1; 1000 nM) [%] | cell viability (KG-1; 10000 nM) [%] | cell viability (ML-2; 1 nM) [%] | cell viability (ML-2; 10 nM) [%] | cell viability (ML-2; 100 nM) [%] | cell viability (ML-2; 1000 nM) [%] | cell viability (ML-2; 10000 nM) [%] | cell viability (MV4-11; 1 nM) [%] | cell viability (MV4-11; 10 nM) [%] | cell viability (MV4-11; 100 nM) [%] | cell viability (MV4-11; 1000 nM) [%] | cell viability (MV4-11; 10000 nM) [%]
1 | C1CCC(C(CC2CCCCN2)C2CCCCC2)CC1.O=C(O)/C=C\C(=O)O (centres undefined) [Perhexiline] | 108 | 82.7 | 108 | 91.3 | 14.1 | 91.9 | 85.2 | 100 | 95.6 | 0.46 | 76.3 | 87.2 | 89.7 | 92.8 | 0.081 | 100 | 101 | 95.3 | 91.8 | 0.781
2 | OCCN1CCN(CCCN2c3ccccc3Sc3ccc(Cl)cc32)CC1 [Perphenazine] | 120 | 107 | 90.1 | 108 | 107 | 105 | 93 | 97.4 | 99.7 | 43.4 | 99.6 | 95.4 | 96.6 | 101 | 34.4 | 102 | 96 | 93.4 | 92.8 | 9.41
3 | C=CCc1ccc2c(c1O)C(=O)c1ccccc1C2=O [R162] | 104 | 101 | 103 | 106 | 110 | 85.5 | 98 | 107 | 109 | 114 | 99.4 | 99.2 | 97.8 | 101 | 90.8 | 100 | 97.4 | 102 | 130 | 121
4 | O=C(c1ccc(OCCN2CCCCC2)cc1)c1c(-c2ccc(O)cc2)sc2cc(O)ccc12 [Raloxifene] | 90.2 | 97.7 | 96.3 | 98.4 | 87.4 | 102 | 90.6 | 92.1 | 96.5 | 75.1 | 101 | 91.2 | 101 | 96.9 | 82.9 | 93.9 | 102 | 85.4 | 93.3 | 58.9
5 | NC(=O)c1ncn([C@@H]2O[C@H](CO)[C@@H](O)[C@H]2O)n1 [Ribavirin] | 92.5 | 104 | 111 | 113 | 112 | 98.9 | 110 | 96.8 | 95.2 | 98.1 | 95.4 | 103 | 97.7 | 94.3 | 111 | 110 | 92.1 | 89.8 | 137 | 81.8
6 | Nc1ncnc2c1ncn2[C@@H]1O[C@H](CSCC[C@H](N)C(=O)O)[C@@H](O)[C@H]1O [S-Adenosyl Homocysteine] | 108 | 114 | 104 | 101 | 113 | 110 | 106 | 98.1 | 100 | 102 | 102 | 102 | 101 | 107 | 103 | 110 | 113 | 91.8 | 97 | 86.1
7 | CCCc1nn(C)c2c(O)nc(-c3cc(S(=O)(=O)N4CCN(C)CC4)ccc3OCC)nc12 [Sildenafil] | 96.8 | 115 | 100 | 108 | 122 | 95.9 | 97 | 95.7 | 105 | 108 | 92.3 | 103 | 93.1 | 109 | 107 | 99.6 | 95.1 | 101 | 98.8 | 119
8 | Cc1coc2c1C(=O)C(=O)c1c-2ccc2c(C)cccc12 [Tanshinone I] | 121 | 97.3 | 107 | 106 | 92.7 | 113 | 99.9 | 98 | 99.3 | 77.6 | 113 | 114 | 97.8 | 103 | 71.1 | 101 | 89.7 | 108 | 103 | 97.2
9 | CCOC(=O)N1c2ccc(C(F)(F)F)cc2[C@@H](N(Cc2cc(C(F)(F)F)cc(C(F)(F)F)c2)C(=O)OC)C[C@H]1CC [Torcetrapib] | 102 | 96.9 | 134 | 103 | 109 | 84.9 | 52.6 | 107 | 81.1 | 45.1 | 89.8 | 97 | 118 | 80.9 | 57.8 | 103 | 105 | 147 | 84.6 | 53.3
10 | Oc1cc(Cl)ccc1Oc1ccc(Cl)cc1Cl [Triclosan] | 118 | 110 | 86.3 | 105 | 108 | 111 | 89.3 | 98.3 | 109 | 143 | 101 | 104 | 102 | 114 | 93.5 | 110 | 82.5 | 104 | 93.7 | 82.1
11 | COc1cc2c(NC3CCN(C)CC3)nc(N3CCCN(C)CC3)nc2cc1OCCCN(C)C [UNC0224] | 84.8 | 114 | 106 | 98.3 | 88.6 | 102 | 117 | 94.1 | 96.8 | 108 | 94 | 111 | 95 | 99.6 | 97.2 | 97.8 | 98.7 | 95.2 | 91.4 | 64
12 | CC(C)C[C@H](NC(=O)[C@@H](O)[C@H](N)Cc1ccccc1)C(=O)O [Ubenimex] | 107 | 106 | – | 95.4 | 106 | 111 | 105 | 98.9 | 92.2 | 88.9 | 108 | 109 | 101 | 87.3 | 99.8 | 100 | 103 | 109 | 99.8 | 143
13 | O=P(O)(O)C(O)(Cn1ccnc1)P(=O)(O)O [Zoledronic acid] | 90.6 | 92.7 | 101 | 94.9 | 99.3 | 99.3 | 106 | 111 | 103 | 108 | 80.5 | 94.9 | 92.6 | 105 | 102 | 94.7 | 104 | 88.7 | 101 | 81.5
